Results published in PMC6812009, “Covalent Aurora A regulation by the metabolic integrator coenzyme A” (Redox Biology, 2019).
Like-named read-outs stand apart in the source and are kept apart here.

What was measured:
Aurora A (active) = target: T1, Aurora A (active) (Homo sapiens, UniProt O14965); assay: In vitro Aurora A kinase assay (γ33P-ATP incorporation into myelin basic protein); format: biochemical
T1 construct: Bacterially expressed full-length His-Aurora A was used to determine the IC50 value for CoA; made in house; host or cells: E. coli BL21 (DE3) pLysS
T1 sequence (O14965 1-403): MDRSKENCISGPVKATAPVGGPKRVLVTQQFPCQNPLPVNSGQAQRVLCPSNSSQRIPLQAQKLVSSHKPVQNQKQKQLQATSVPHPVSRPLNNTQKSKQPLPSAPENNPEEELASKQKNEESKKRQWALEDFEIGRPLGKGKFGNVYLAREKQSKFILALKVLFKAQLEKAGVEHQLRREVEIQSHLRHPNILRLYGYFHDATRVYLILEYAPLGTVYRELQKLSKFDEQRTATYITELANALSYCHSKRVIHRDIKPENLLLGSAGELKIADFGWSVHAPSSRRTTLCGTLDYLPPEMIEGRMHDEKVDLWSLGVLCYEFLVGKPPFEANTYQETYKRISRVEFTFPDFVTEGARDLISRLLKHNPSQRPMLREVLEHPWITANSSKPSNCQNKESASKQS
Procedure: (§1) Profiling of 117 protein kinases with CoA, dpCoA and ADP was carried out at the International Centre for Protein Kinase Profiling at the University of Dundee. Each compound was tested in vitro, in duplicate, at 100 μM final concentration using recombinant kinases, model substrates and optimal concentrations of ATP. Bacterially expressed full-length His-Aurora A was used to determine the IC50 value for CoA (in the presence or absence of DTT), dpCoA, ADP and desulfo-CoA. The assay was performed in the presence of 5 μM competing ATP. To examine whether the inhibitory effect of CoA on Aurora A is modulated by TPX2, IC50 values for CoA were also generated in the presence and absence of 1 μg TPX2 (residues 1–43) fragment.
Aurora A kinase activity was assayed by measuring incorporation of γ^33P-ATP into myelin basic protein (Sigma). Purified recombinant protein (100 ng) was incubated at room temperature for 30 min in a total volume of 15 μl containing 50 mM HEPES pH 7.5, 10 mM MgCl2, 1 mM EGTA, 0.05% Brij-35, 0.5 mg/ml myelin basic protein, and 5 μM γ^33P-ATP (100–10,000 dpm/pmol). The reaction was stopped by spotting the reaction mixture onto squares of P81 phosphocellulose ion exchange paper (Whatmann), which were then immersed in 1.5% (v/v) phosphoric acid. After washing twice in 1% phosphoric acid followed by two washes in distilled water, the papers were air dried and radioactivity was counted by a scintillation counter and recorded by Quantasmart version 2.03.

IRAK4 = target: T2, IRAK4 (Homo sapiens, UniProt Q9NWZ3); assay: Kinase profiling screen (radioactive filter-binding assay); format: biochemical; conditions: 100 μM compound, 20 μM ATP; read-out: Kinase activity, % of activity in the absence of inhibitor
T2 sequence (Q9NWZ3 1-460): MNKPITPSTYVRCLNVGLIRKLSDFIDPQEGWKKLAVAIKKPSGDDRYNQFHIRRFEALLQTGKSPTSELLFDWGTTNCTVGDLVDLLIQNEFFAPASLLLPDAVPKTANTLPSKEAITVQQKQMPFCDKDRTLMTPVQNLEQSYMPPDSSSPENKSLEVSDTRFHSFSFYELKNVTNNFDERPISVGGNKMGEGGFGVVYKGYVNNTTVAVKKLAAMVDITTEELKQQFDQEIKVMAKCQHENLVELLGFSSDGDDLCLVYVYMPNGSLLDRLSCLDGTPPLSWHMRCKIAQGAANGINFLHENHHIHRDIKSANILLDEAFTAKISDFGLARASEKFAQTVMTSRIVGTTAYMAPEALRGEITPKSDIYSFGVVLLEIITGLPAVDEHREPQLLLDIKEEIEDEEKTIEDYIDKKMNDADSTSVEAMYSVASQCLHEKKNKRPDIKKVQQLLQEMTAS
In short: (§2)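 Across 117 protein kinases, duplicate in vitro measurements were made with CoA, dpCoA and ADP present at 100 μM final. Each reaction used recombinant kinase, a model substrate and an optimal concentration of ATP.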

MARK3 = MARK3 (Homo sapiens, UniProt P27448); assay: as above; format: biochemical; conditions: 100 μM compound, 5 μM ATP; read-out: Kinase activity, % of activity in the absence of inhibitor
In short: as §2

SRPK1 = SRPK1 (Homo sapiens, UniProt Q96SB4); assay: as above; format: biochemical; conditions: 100 μM compound, 50 μM ATP; read-out: Kinase activity, % of activity in the absence of inhibitor
In short: as §2

JAK2 = JAK2 (Homo sapiens, UniProt O60674); assay: as above; format: biochemical; conditions: 100 μM compound, 5 μM ATP; read-out: Kinase activity, % of activity in the absence of inhibitor
In short: as §2

TIE2 = TIE2 (Homo sapiens, UniProt Q02763); assay: as above; format: biochemical; conditions: 100 μM compound, 20 μM ATP; read-out: Kinase activity, % of activity in the absence of inhibitor
In short: as §2

EPH-A2 = EPH-A2 (Homo sapiens, UniProt P29317); assay: as above; format: biochemical; conditions: 100 μM compound, 50 μM ATP; read-out: Kinase activity, % of activity in the absence of inhibitor
In short: as §2

PKCζ = target: T3, PKCζ (Homo sapiens, UniProt Q05513); assay: as above; format: biochemical; conditions: 100 μM compound, 5 μM ATP; read-out: Kinase activity, % of activity in the absence of inhibitor
T3 sequence (Q05513 1-592): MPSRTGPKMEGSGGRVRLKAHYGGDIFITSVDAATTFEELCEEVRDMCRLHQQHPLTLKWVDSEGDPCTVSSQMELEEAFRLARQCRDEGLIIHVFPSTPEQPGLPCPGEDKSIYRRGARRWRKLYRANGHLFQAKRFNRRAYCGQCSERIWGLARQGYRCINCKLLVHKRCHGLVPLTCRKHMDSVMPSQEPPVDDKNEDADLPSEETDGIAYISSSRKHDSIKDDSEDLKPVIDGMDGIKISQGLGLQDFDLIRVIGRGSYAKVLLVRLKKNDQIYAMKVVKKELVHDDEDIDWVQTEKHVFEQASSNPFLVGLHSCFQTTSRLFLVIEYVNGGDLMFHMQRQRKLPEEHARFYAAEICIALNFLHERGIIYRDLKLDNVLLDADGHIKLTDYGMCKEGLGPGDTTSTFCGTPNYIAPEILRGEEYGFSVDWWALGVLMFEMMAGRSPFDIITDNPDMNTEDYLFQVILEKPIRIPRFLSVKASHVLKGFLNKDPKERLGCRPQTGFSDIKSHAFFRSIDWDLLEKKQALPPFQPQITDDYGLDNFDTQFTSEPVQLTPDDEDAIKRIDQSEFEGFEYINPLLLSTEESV
In short: as §2

ROCK 2 = assay: as above; format: biochemical, human; conditions: 100 μM compound, 20 μM ATP
Procedure: as §1

CAMKK = assay: as above; format: biochemical, human; conditions: 100 μM compound, 20 μM ATP
Procedure: as §1

AMPK = assay: as above; format: biochemical, human; conditions: 100 μM compound, 50 μM ATP
Procedure: as §1

[1] = 5 μM competing ATP, read-out: Aurora A (active) IC50 (μM), activity assay

TIE2, sequence (Q02763 23-1124): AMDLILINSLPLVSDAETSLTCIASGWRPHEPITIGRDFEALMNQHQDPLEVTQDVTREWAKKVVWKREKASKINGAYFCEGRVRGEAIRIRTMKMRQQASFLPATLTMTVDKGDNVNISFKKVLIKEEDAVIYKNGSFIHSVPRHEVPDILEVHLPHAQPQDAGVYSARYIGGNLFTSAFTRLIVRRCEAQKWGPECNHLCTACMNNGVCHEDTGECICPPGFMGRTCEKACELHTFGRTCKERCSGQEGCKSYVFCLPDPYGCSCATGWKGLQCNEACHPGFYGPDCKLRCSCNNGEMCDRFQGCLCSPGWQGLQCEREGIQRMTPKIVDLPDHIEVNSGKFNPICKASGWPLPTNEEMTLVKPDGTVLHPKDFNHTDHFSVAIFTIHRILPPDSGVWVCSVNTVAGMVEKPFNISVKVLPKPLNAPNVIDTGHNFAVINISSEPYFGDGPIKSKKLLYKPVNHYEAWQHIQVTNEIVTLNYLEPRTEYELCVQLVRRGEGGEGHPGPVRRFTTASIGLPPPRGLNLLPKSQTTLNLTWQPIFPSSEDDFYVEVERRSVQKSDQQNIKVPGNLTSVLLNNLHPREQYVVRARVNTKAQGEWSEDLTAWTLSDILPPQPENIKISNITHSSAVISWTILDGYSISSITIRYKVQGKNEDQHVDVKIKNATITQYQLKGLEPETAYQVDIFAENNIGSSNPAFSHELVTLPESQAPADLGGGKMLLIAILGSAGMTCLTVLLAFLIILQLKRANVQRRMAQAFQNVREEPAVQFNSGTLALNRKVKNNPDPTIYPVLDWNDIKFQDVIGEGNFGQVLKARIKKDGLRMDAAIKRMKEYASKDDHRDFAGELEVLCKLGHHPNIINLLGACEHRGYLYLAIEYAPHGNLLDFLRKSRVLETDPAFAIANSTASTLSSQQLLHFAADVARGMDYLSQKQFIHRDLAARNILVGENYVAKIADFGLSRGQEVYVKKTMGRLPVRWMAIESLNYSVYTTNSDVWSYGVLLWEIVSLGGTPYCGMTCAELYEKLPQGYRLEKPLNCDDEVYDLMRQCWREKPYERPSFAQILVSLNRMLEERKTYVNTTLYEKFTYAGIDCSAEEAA
MARK3, sequence (P27448 whole entry): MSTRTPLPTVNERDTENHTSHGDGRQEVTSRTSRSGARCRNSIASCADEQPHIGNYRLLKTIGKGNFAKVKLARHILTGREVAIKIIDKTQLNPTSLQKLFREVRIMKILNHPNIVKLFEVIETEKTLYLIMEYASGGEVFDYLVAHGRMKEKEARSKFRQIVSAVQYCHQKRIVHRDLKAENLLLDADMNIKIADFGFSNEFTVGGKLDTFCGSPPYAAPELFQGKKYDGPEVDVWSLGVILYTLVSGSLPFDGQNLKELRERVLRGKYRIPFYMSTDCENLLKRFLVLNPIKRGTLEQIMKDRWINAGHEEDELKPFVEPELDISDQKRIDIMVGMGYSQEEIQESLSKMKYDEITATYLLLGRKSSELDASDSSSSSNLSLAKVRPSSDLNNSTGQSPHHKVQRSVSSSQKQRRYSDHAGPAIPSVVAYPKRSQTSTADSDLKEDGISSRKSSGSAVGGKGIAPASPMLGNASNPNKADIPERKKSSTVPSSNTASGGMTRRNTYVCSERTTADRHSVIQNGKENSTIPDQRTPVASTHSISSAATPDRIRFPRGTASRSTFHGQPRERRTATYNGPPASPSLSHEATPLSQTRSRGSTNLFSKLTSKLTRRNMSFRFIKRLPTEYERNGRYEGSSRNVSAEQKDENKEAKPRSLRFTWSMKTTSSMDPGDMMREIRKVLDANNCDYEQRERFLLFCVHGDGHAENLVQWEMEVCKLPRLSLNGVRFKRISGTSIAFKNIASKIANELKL
EPH-A2, sequence (P29317 24-976): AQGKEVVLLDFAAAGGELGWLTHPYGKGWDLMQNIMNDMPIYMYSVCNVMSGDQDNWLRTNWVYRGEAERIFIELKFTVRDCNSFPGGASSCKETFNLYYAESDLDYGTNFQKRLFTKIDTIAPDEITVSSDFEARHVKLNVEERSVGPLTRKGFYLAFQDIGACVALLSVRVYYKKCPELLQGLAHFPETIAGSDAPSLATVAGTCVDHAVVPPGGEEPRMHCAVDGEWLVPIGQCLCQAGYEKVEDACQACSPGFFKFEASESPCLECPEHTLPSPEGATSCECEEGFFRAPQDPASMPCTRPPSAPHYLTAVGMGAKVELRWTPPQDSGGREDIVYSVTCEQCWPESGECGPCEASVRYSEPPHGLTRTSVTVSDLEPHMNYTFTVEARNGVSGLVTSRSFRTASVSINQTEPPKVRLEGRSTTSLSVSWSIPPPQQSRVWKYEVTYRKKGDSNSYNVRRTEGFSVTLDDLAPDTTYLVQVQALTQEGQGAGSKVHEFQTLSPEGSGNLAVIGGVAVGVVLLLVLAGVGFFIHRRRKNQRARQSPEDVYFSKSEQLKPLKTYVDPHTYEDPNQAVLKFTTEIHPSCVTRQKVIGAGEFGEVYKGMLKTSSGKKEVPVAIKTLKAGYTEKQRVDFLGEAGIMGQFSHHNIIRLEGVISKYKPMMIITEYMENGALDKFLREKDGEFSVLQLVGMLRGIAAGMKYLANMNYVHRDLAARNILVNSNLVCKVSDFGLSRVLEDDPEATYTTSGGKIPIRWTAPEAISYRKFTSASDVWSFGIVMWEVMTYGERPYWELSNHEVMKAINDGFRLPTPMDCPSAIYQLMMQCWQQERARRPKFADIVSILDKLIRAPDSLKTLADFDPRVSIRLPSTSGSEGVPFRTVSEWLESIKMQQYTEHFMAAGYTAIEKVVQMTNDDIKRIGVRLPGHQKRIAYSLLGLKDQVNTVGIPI
SRPK1, sequence (Q96SB4 whole entry): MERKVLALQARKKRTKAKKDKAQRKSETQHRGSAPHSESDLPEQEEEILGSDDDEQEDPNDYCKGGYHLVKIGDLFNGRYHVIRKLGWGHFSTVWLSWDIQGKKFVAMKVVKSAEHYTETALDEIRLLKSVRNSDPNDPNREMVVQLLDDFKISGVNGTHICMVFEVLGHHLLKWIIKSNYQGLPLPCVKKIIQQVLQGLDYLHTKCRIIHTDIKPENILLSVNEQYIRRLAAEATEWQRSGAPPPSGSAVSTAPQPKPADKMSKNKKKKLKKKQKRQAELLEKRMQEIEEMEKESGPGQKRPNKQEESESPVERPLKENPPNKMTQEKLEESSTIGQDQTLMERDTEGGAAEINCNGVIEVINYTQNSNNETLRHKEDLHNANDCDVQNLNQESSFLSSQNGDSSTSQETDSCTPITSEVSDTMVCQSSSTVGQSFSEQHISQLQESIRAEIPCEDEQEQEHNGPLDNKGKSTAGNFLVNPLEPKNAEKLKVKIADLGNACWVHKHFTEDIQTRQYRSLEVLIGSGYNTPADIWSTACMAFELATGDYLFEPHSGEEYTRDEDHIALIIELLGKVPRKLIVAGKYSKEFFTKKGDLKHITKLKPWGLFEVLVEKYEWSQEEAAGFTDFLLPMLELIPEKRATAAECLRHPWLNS
JAK2, sequence (O60674 whole entry): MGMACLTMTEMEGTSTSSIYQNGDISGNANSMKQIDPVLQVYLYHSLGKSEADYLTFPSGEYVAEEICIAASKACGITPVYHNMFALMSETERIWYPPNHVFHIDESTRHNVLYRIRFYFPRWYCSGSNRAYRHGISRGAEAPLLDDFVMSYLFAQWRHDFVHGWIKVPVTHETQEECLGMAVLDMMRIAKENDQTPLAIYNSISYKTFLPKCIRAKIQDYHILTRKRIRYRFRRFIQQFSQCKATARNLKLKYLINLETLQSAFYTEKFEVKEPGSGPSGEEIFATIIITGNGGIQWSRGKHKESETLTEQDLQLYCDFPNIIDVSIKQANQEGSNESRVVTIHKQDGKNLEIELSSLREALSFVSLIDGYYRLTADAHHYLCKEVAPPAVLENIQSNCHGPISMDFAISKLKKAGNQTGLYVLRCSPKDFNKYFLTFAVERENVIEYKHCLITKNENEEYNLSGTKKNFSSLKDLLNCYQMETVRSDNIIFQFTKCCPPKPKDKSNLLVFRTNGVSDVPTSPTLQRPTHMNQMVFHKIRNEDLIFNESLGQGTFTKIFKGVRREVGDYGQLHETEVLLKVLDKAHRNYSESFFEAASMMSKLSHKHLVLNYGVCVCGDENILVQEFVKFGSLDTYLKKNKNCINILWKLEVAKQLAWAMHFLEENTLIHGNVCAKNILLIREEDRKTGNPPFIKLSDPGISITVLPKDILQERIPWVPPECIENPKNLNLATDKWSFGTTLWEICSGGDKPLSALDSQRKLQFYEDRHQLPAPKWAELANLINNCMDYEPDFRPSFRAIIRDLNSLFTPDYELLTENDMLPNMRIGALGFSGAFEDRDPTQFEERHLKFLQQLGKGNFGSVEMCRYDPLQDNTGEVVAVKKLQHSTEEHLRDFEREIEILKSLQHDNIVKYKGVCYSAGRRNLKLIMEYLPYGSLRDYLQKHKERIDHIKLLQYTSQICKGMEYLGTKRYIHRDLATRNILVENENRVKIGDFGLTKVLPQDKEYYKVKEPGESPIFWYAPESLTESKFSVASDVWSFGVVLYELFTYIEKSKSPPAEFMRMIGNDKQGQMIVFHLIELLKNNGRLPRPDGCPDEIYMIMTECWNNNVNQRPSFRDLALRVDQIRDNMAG

| SMILES | IC50 (Aurora A (active); [1]) | activity at 100 µM (IRAK4) | activity at 100 µM (MARK3) | activity at 100 µM (SRPK1) | activity at 100 µM (JAK2) | activity at 100 µM (TIE2) | activity at 100 µM (EPH-A2) | activity at 100 µM (PKCζ) | Kinase activity, % of activity in the absence of inhibitor (ROCK 2) | Kinase activity, % of activity in the absence of inhibitor (CAMKK) | Kinase activity, % of activity in the absence of inhibitor (AMPK) | IC50 (Aurora A (active); 5 μM ATP, 1 mM DTT, read-out: IC50, Aurora A kinase activity in the presence of DTT) | IC50 (Aurora A (active); 5 μM ATP, absence of DTT, read-out: IC50, Aurora A kinase activity) | TPX2-induced kinase activation after pre-incubation of Aurora A with CoA (Aurora A (active); 100 μM CoA pre-incubation, DTT-sensitive) | Inhibitory effect on Aurora A in the presence of TPX2 1–43 fragment (Aurora A (active); presence of TPX2 (residues 1–43), serial dilutions of CoA) |
| --- | --- | --- | --- | --- | --- | --- | --- | --- | --- | --- | --- | --- | --- | --- | --- |
| Nc1ncnc2c1ncn2C1OC(COP(=O)(O)OP(=O)(O)O)C(O)C1O (stereo not shown) [ADP] | 54 µM | 82.1% | 14.8% | 60.9% | 7.1% | 33.1% | 45% | 37.7% | 57.8% | 52.9% | 54.1% |  |  |  |  |
| CC(C)(COP(=O)(O)OP(=O)(O)OC[C@H]1O[C@@H](n2cnc3c(N)ncnc32)[C@H](O)[C@@H]1OP(=O)(O)O)[C@@H](O)C(=O)NCCC(=O)NCCS [CoA, Coenzyme A] | 5 µM | 89.1% | 88.9% | 116% | 106% | 93% | 102% | 99.3% | 94.3% | 97.4% | 90.8% | 47 µM | ~5 µM | attenuated | completely abrogated the inhibitory effect |
| CC(C)(COP(=O)(O)OP(=O)(O)OCC1OC(n2cnc3c(N)ncnc32)C(O)C1O)C(O)C(=O)NCCC(=O)NCCS (stereo not shown) [dpCoA, dephospho-CoA] | 17 µM | 74.8% | 46.2% | 89.1% | 62.5% | 83.4% | 99.2% | 89.9% | 96.4% | 71.4% | 75.9% |  |  |  |  |
